Measurements reported in patent US11986513B2, “GAL(1-15) and analogues thereof for use in the prevention and/or treatment of alcohol-related effects and disorders” (UNIVERSIDAD DE MÁLAGA, priority 2017, dated 2024).
Read-outs that look alike come from different tables or passages of the source. Values belong to the compound of their own block, whether it stands above or below them.

Legend:
rats [1] = experiment: Locomotor activity (open field), ethanol-reduced locomotion; format: in vivo, rat
Protocol: In this experiment, the effects of GAL(1-15) (3 nmol) on ethanol-reduced locomotion (1.75 g/kg; intraperitoneal (i.p.)) (Vallof et al., 2016) were investigated. Locomotor activity was recorded in rat open field (100×100×50 cm) where animals were individually placed and left to freely explore. Their behaviour was recorded over a 30-minute period by ceiling-mounted video camera, and locomotor activity was analysed using the video-tracking software EthovisionXT. After each assay, all surfaces were cleaned with a paper towel and 70% ethanol solution. For locomotor activity, total distance travelled (cm) and mean speed (cm/s) were recorded. Groups of rats were administered via i.c.v. GAL(1-15) or vehicle 20 minutes before the test; i.p. ethanol (1.75 g/kg) or saline solution administration was performed 5 minutes before the test.

GALR1 [2] = settings: for GALR1 mRNA expression in the corpus striatum: naive rats, mean ± SEM
Protocol: (§1) The method to perform RNA isolation and RT-PCR was described previously (Millon et al., 2015). Total RNA was isolated from the corpus striatum using RNeasy Lipid Tissue kit (Qiagen, Hilden, Germany). cDNA was obtained using a Reverse Transcriptase Core kit (Eurogentec, Seraing, Belgium). These steps were performed according to the manufacturer's instructions.
(§2) All PCR analyses were performed in triplicate using Power SYBR Green PCR Master Mix (Applied Biosystems, Foster City, USA) in the 7500 RT-PCR system (Applied Biosystems, Foster City, USA). The primer sequences used in this study are:
(§3) The data was analysed using the comparative Ct method and normalised to measurements of glyceraldehyde-3-phosphate dehydrogenase (GAPDH) mRNA.
(§4) Groups of naïve rats were injected i.p. with ethanol at 4 g/kg (Bilbao et al., 2016), dissolved in a 0.9% sterile saline solution (w/v), and 0, 2, and 4 hours after the injection the brains were extracted after a rapid decapitation. The corpus striatum was quickly extracted from all the animals and frozen immediately on solid CO2 until use. The method to perform RNA isolation and RT-PCR was described previously.

GALR2 [3] = settings: for GALR2 mRNA expression in the corpus striatum: naive rats, mean ± SEM
Protocol: as §1, §2, §3, §4

[4] = test system: hepatic cytosolic alcohol dehydrogenase (ADH)
Protocol: The activity of hepatic cytosolic alcohol dehydrogenase (ADH) in the rats from the two-bottle choice test was analysed. ADH activity has a good correlation with ethanol elimination rates in vivo (Lumeng et al., 1979) and chronic ethanol administration causes an increase in ADH activity (Buris et al., 1985).
The livers were removed 2 hours after i.c.v. injections and frozen in solid CO2 until use. Determination of ADH activity was performed in homogenized liver tissue in a TrisHCl solution (10 mM, pH=8.8; 0.5 mM dithiothreitol) centrifuged at 12.000 g for 10 minutes. ADH activity was evaluated using a microassay adapted to Cobas Mira analyser according to Shephard and colleagues (Shephard et al., 1987). Briefly, 300 μl of NAD solution (2.9 mM in 0.1 M Glycine/NaOH: p=10) was added to 30 μl of sample. The first optical reading was recorded before the addition of 20 μl of 17 mM ethanol, and then the rate of change in absorption of the NADH chromogen was recorded at 340 nm over time on the Cobas Mira analyser at 37° C. One activity unit was defined as the reduction of […] NAD to NADH/min at 37° C.

rats [5] = experiment: Two-bottle choice test for voluntary ethanol consumption and preference; format: in vivo, rat; settings: for preference for ethanol compared with GAL / ethanol intake compared with GAL: 3 nmol i.c.v. each
Protocol: Male Sprague—Dawley rats (body weight 225-250 g, age 8 weeks) were obtained from Criffa and maintained in a humidity-controlled and temperature-controlled (20-22° C.) room. The rats in the two-bottle choice paradigm were during the entire protocol maintained on a 12-hour reversed light/dark cycle (lights off at 10 am) whereas the other rats were kept on 12-hour light/dark cycle. The animals had free access to food pellets and tap water. All animal experimentation was conducted in accordance with the University of Malaga Guidelines for the Care and Use of Laboratory Animals.
This protocol has been used previously (Diaz-Cabiale et al., 2011; Millon et al., 2015). Briefly, the rats were anaesthetised intraperitoneally with Equitesin (3.3 ml/kg body weight) and stereotaxically implanted with a unilateral chronic 22-gauge stainless steel guide cannula into the right lateral cerebral ventricle using the following coordinates: 1.4 mm lateral and 1 mm posterior to bregma and 3.6 mm below the surface of the skull (Paxinos, 1986). After surgery, animals were individually housed and allowed a recovery period of 7 days. The injections in the lateral ventricle were performed using a 26-gauge stainless steel injection cannula connected via PE-10 tubing to a Hamilton syringe. The total volume was 5 μl per injection, and the infusion time was 1 minute.
The solutions were prepared freshly, and the peptides were dissolved in artificial cerebrospinal fluid (with a composition of […], […] NaH2CO3, […] KCl, 0.5 nM KH2PO4, 1.2 nM CaCl2, 1.8 nM MgCl2, 0.5 nM Na2SO4, and 5.8 nM D-glucose, pH 7.4). GAL was obtained from NeoMPS, Strasbourg, France; GAL(1-15) and the GALR2 receptor antagonist M871 were obtained from Tocris Bioscience, Bristol, UK.
The two-bottle choice test was used to determine the voluntary ethanol consumption of rats as described previously (Castilla-Ortega et al., 2016). Briefly, after 7 days of water consumption (both bottles), a choice between water and increasing concentrations of ethanol [3, 6, and 10% (v/v)] was offered for 7 days each. A choice between 10% ethanol (v/v) and water was offered for several days until reaching a stable baseline value. Water and ethanol consumption were recorded daily. The position of the bottles was changed every day to avoid preference for location. Water intake (g/kg), ethanol intake (g/kg), and preference ([ethanol consumption/total fluid [water plus ethanol] consumption×100]) were calculated for each animal. Throughout the experiment, evaporation and spillage estimates were calculated using an empty cage with two bottles, one containing water and the other containing the appropriate ethanol solution. In the experiments, a choice between ethanol (10%) and water was offered.
Three sets of experiments were conducted in the two bottle choice paradigm. In the first set of experiments, a dose-response curve of GAL(1-15) was performed. For this, groups of rats received i.c.v. 1 nmol or 3 nmol of GAL(1-15), or vehicle 2, 14, and 24 hours before the measurements. In the second set of experiments, the effects of the two-bottle choice test for GAL and GAL(1-15) were compared. For this, groups of rats received i.c.v. 3 nmol of GAL, 3 nmol of GAL(1-15), or vehicle, 2, 14, and 24 hours before the test. In the last set of experiments, the role of GALR2 was studied; for this, groups of rats received i.c.v. 3 nmol of GAL(1-15) combined with 3 nmol of GALR2 […] before the measurements.

C-Fos = C-Fos mRNA expression in the corpus striatum during voluntary ethanol consumption (RT-PCR); format: in vivo, rat; settings: 3 nmol i.c.v., 2 hours after administration, two-bottle choice rats, versus vehicle/EtOH
Protocol: (§5) Groups of rats from the two-bottle choice paradigm were killed by decapitation 2 hours after a single i.c.v. administration of 3 nmol of GAL(1-15) or vehicle, and the corpus striatum was dissected and frozen on solid CO2 until mRNA expression analysis.

Rab5 = Rab5 mRNA expression in the corpus striatum during voluntary ethanol consumption (RT-PCR); format: in vivo, rat; settings: 3 nmol i.c.v., 2 hours after administration, two-bottle choice rats, versus vehicle/EtOH
Protocol: as §5

GALR1 [6] = experiment: GALR1 mRNA expression in the corpus striatum during voluntary ethanol consumption (RT-PCR); format: in vivo, rat; settings: 3 nmol i.c.v., 2 hours after administration, two-bottle choice rats, versus vehicle/EtOH
Protocol: as §5

GALR2 [7] = experiment: GALR2 mRNA expression in the corpus striatum during voluntary ethanol consumption (RT-PCR); format: in vivo, rat; settings: 3 nmol i.c.v., 2 hours after administration, two-bottle choice rats, versus vehicle/EtOH (p=0.101)
Protocol: as §5

rats [8] = experiment: Ethanol self-administration (operant model); format: in vivo, rat
Protocol: The use of operant models as substance self-administration models are widely used for performing motivation or hedonic studies. In these models, the animal has to “work” to obtain the reinforcing substance by pressing a lever, which allows the investigator to observe the animal's interest in the substance, as well as to learn the effect of the substance as a reward for the animal (Leeman et al., 2010). The method is performed according to earlier protocols (Alén et al., 2009) with some modifications. The test consists of a two-week training phase in which rats are kept the first 2 to 4 days with a water restriction to facilitate the learning of the task of pressing the lever to obtain the reinforcement. Animals are exposed daily to 30-minute sessions in self-administration boxes (Letica instruments). The boxes are equipped with two retractable levers located on both sides of a liquid dispenser (0.1 mL) positioned in the centre of the box panel. […] Once the training period is over, where all the animals have proven to have learned the task, daily sessions continue to be performed until establishing a stable baseline. Then training begins for ethanol consumption, and for this purpose a gradual increase in ethanol concentration (from 2% to 10%) is performed at the same time as a gradual reduction in saccharin concentration (from 0.16% to 0%) over several days, where after this period the animals become accustomed consuming 10% ethanol. After several sessions to establish a stable baseline, the animals are subjected to placement of a chronic intracerebroventricular cannula, leaving them for several days after this intervention to again establish a stable ethanol consumption baseline. Then the test is performed, consisting of a 30-minute session after administration of the different treatments, recording the number of active lever presses, as well as the number of rewards (FIG. 7).
Two sets of ethanol self-administration experiments were performed. In the first set of experiments, a dose-response curve of GAL(1-15) was performed. For this, groups of rats received i.c.v. GAL(1-15) at doses of 0.3, 1, and 3 nmol, or vehicle. In the second set of experiments, the effect of GAL 3 nmol and GAL(1-15) 3 nmol in ethanol self-administration were compared.

[9] = ethanol 1.75 g/kg i.p., five minutes after administration, open field
[10] = 0 hours after i.p. injection of EtOH (4 g/kg)
[11] = 2 hours after i.p. injection of EtOH (4 g/kg)
[12] = 4 hours after i.p. injection of EtOH (4 g/kg)
[13] = 3 nmol i.c.v. each, 2, 14, 24 hours
[14] = i.c.v., any dose (1 or 3 nmol), any time point

ADH activity compared with the baseline group ([4]; voluntary ethanol intake through the two-bottle choice test protocol): significant increase
Compound: CCO [EtOH, ethanol]
distance travelled (rats [1]; [9]): reduced
mean speed (rats [1]; [9]): reduced
GALR1 mRNA expression in the corpus striatum (GALR1 [2]; [10]): 0.87 ± 0.2
GALR1 mRNA expression in the corpus striatum (GALR1 [2]; [11]): 0.60 ± 0.1
GALR1 mRNA expression in the corpus striatum (GALR1 [2]; [12]): 0.47 ± 0.1
effect on GALR1 expression in the corpus striatum (GALR1 [2]; single injection of ethanol 4 g/kg i.p., at 2 and 4 hours): no effect
GALR2 mRNA expression in the corpus striatum (GALR2 [3]; [10]): 1.21 ± 0.1
GALR2 mRNA expression in the corpus striatum (GALR2 [3]; [11]): 1.23 ± 0.1
GALR2 mRNA expression in the corpus striatum (GALR2 [3]; [12]): 1.44 ± 0.1
effect on GALR2 mRNA levels in the corpus striatum (GALR2 [3]; single injection of ethanol 4 g/kg i.p., any time point): No effects were observed
ADH activity (liver) ([4]; voluntary ethanol intake in two-bottle choice test, i.c.v. cerebrospinal fluid vehicle, mean ± SEM): 313.1 ± 10.6 protein IU/g

Compound: Gly-Trp-Thr-Leu-Asn-Ser-Ala-Gly-Tyr-Leu-Leu-Gly-Pro-His-Ala (GWTLNSAGYLLGPHA; General formula for GAL 1-15) [GAL(1-15)]
preference for ethanol (rats [5]; 1 nmol i.c.v.): no effects
ethanol intake (rats [5]; 1 nmol i.c.v., all the time points analysed (2, 14, 24 hours)): no effect
food intake, difference between GAL and GAL(1-15) (rats [5]; [13]): No differences were found
water intake, difference between GAL and GAL(1-15) (rats [5]; [13]): No differences were found
preference for ethanol compared with GAL (rats [5]; 2 hours after administration): decreased
ethanol intake compared with GAL (rats [5]; 2 hours after injection): significantly decreased
ethanol intake compared with GAL (rats [5]; 14 hours after injection): significantly decreased
ethanol intake compared with GAL (rats [5]; 24 hours after injection): significantly decreased
preference for ethanol compared with GAL (rats [5]; 24 hours later): maintained
decrease in the preference for ethanol (rats [5]; 3 nmol i.c.v., 2 hours after administration): 90%
ethanol intake (rats [5]; 3 nmol i.c.v., 2 hours after administration, 10% ethanol vs water, versus vehicle): significantly decreased
ethanol intake (rats [5]; 3 nmol i.c.v., 14 hours after administration, 10% ethanol vs water, versus vehicle): significantly decreased
preference for ethanol (decrease) (rats [5]; 3 nmol i.c.v., 24 hours): maintained
ethanol intake (rats [5]; 3 nmol i.c.v., 24 hours after administration, 10% ethanol vs water, versus vehicle): significantly decreased
food intake (rats [5]; [14]): no differences were found
water intake (rats [5]; [14]): no differences were found
mRNA levels of C-Fos in corpus striatum (C-Fos): significant increase
mRNA levels of Rab5 in corpus striatum (Rab5): significant increase
GALR1 mRNA levels in corpus striatum (GALR1 [6]): significant decrease
GALR2 expression in corpus striatum (GALR2 [7]): slight reduction
distance travelled (rats [1]; GAL(1-15) 3 nmol i.c.v. 20 min before test, rats given i.p. ethanol 1.75 g/kg): decreased
distance travelled (rats [1]; GAL(1-15) 3 nmol i.c.v. 20 min before test, rats given systemic saline solution): no such effects were observed
mean speed (rats [1]; GAL(1-15) 3 nmol i.c.v. 20 min before test, rats systemically treated with ethanol 1.75 g/kg): decreased
number of reinforcements in ethanol self-administration (rats [8]; 0.3 nmol i.c.v. 15 min before the test): no effect
number of ethanol reinforcements (rats [8]; 1 nmol i.c.v. 15 min before the test, versus control): significant decrease
number of ethanol reinforcements (reduction) (rats [8]; 3 nmol i.c.v. 15 min before the test, versus control): even more pronounced
number of ethanol reinforcements compared with GAL (rats [8]; 3 nmol i.c.v. each, 15 min before the test): significantly reduces
